Tested on: recombinant NL4-3 virus (Renilla luciferase in nef, Gag P373S)
Experiment: HIV cell culture assay (luciferase activity in MT-2 cells infected with NLRluc recombinant virus)
Format: cell-based
How it was run: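 Activity was read as luciferase output (Dual Luciferase reagents premixed with lysis solution) after 4–5 days of infection in serially diluted inhibitor. Host cells were MT-2 in 10% FBS RPMI. The reporter virus came from transfected 293T cells and was titered on MT-2.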

[1] = NL43, MT-2 cells infected 4-5 days with NLRluc recombinant virus, class symbol
[2] = NL43, MT-2 cells infected 4-5 days with NLRluc recombinant virus, numeric value

| SMILES | EC50 [1] [nM] | other results |
| --- | --- | --- |
| C=C(C)[C@@H]1CC[C@]2(CN3CC3)CC[C@]3(C)[C@H](CC[C@@H]4[C@@]5(C)CC=C(c6ccc(C(=O)O)cc6)C(C)(C)[C@@H]5CC[C@]43C)[C@@H]12 [Example 177, 4-((1R,3aS,5aR,5bR,7aR,11aS,11bR,13aR,13bR)-3a-(aziridin-1-ylmethyl)-5a,5b,8,8,11a-pentamethyl-1-(prop-1-en-2-yl)-2,3,3a,4,5,5a,5b,6,7,7a,8,11,11a,11b,12,13,13a,13b-octadecahydro-1H-cyclopenta[a]chrysen-9-yl)benzoic acid] | – | EC50 (NL43): < 100 nM |
| C=C(C)[C@@H]1CC[C@]2(CNCCN3CCN(C)CC3)CC[C@]3(C)[C@H](CC[C@@H]4[C@@]5(C)CC=C(c6ccc(C(=O)O)cc6)C(C)(C)[C@@H]5CC[C@]43C)[C@@H]12 [Example 11, 4-((1R,3aS,5aR,5bR,7aR,11aS,1bR,13aR,13bR)-5a,5b,8,8,11a-pentamethyl-3a-((2-(4-methylpiperazin-1-yl)ethylamino)methyl)-1-(prop-1-en-2-yl)-2,3,3a,4,5,5a,5b,6,7,7a,8,11,11a,11b,12,13,13a,13b-octadecahydro-1H-cyclopenta[a]chrysen-9-yl)benzoic acid] | < 100 | – |
| C=C(C)[C@@H]1CC[C@]2(CNC3(C(=O)O)CC3)CC[C@]3(C)[C@H](CC[C@@H]4[C@@]5(C)CC=C(c6ccc(C(=O)O)cc6)C(C)(C)[C@@H]5CC[C@]43C)[C@@H]12 [Example 50, 4-((1R,3aS,5aR,5bR,7aR,11aS,11bR,13aR,13bR)-3a-((1-carboxycyclopropylamino)methyl)-5a,5b,8,8,11a-pentamethyl-1-(prop-1-en-2-yl)-2,3,3a,4,5,5a,5b,6,7,7a,8,11,11a,11b,12,13,13a,13b-octadecahydro-1H-cyclopenta[a]chrysen-9-yl)benzoic acid] | < 100 | – |
| C=C(C)[C@@H]1CC[C@]2(CNCC(=O)N3CCN(S(=O)(=O)N(C)C)CC3)CC[C@]3(C)[C@H](CC[C@@H]4[C@@]5(C)CC=C(c6ccc(C(=O)O)cc6)C(C)(C)[C@@H]5CC[C@]43C)[C@@H]12 [Example 113, 4-((1R,3aS,5aR,5bR,7aR,11aS,11bR,13aR,13bR)-3a-((2-(4-(N,N-dimethylsulfamoyl)piperazin-1-yl)-2-oxoethylamino)methyl)-5a,5b,8,8,11a-pentamethyl-1-(prop-1-en-2-yl)-2,3,3a,4,5,5a,5b,6,7,7a,8,11,11a,11b,12,13,13a,13b-octadecahydro-1H-cyclopenta[a]chrysen-9-yl)benzoic acid] | < 100 | – |
| C=C(C)[C@@H]1CC[C@]2(CNCCC(=O)N3CCC(F)(F)C3)CC[C@]3(C)[C@H](CC[C@@H]4[C@@]5(C)CC=C(c6ccc(C(=O)O)cc6)C(C)(C)[C@@H]5CC[C@]43C)[C@@H]12 [Example 103, 4-((1R,3aS,5aR,5bR,7aR,11aS,11bR,13aR,13bR)-3a-((3-(3,3-difluoropyrrolidin-1-yl)-3-oxopropylamino)methyl)-5a,5b,8,8,11a-pentamethyl-1-(prop-1-en-2-yl)-2,3,3a,4,5,5a,5b,6,7,7a,8,11,11a,11b,12,13,13a,13b-octadecahydro-1H-cyclopenta[a]chrysen-9-yl)benzoic acid] | < 100 | – |
| C=C(C)[C@@H]1CC[C@]2(CNCC(c3cccnc3)N(C)C)CC[C@]3(C)[C@H](CC[C@@H]4[C@@]5(C)CC=C(c6ccc(C(=O)O)cc6)C(C)(C)[C@@H]5CC[C@]43C)[C@@H]12 (stereo partly drawn) [Example 10, 4-((1R,3aS,5aR,5bR,7aR,11aS,11bR,13aR,13bR)-3a-((2-(dimethylamino)-2-(pyridin-3-yl)ethylamino)methyl)-5a,5b,8,8,11a-pentamethyl-1-(prop-1-en-2-yl)-2,3,3a,4,5,5a,5b,6,7,7a,8,11,11a,11b,12,13,13a,13b-octadecahydro-1H-cyclopenta[a]chrysen-9-yl)benzoic acid] | – | EC50 [2]: 4 nM |
| C=C(C)[C@@H]1CC[C@]2(CNC3(C(=O)OC)CC3)CC[C@]3(C)[C@H](CC[C@@H]4[C@@]5(C)CC=C(c6ccc(C(=O)O)cc6)C(C)(C)[C@@H]5CC[C@]43C)[C@@H]12 [Example 51, 4-((1R,3aS,5aR,5bR,7aR,11aS,11bR,13aR,13bR)-3a-((1-(methoxycarbonyl)cyclopropylamino)methyl)-5a,5b,8,8,11a-pentamethyl-1-(prop-1-en-2-yl)-2,3,3a,4,5,5a,5b,6,7,7a,8,11,11a,11b,12,13,13a,13b-octadecahydro-1H-cyclopenta[a]chrysen-9-yl)benzoic acid] | < 100 | – |
| C=C(C)[C@@H]1CC[C@]2(CNC(=O)NCC(=O)OCC)CC[C@]3(C)[C@H](CC[C@@H]4[C@@]5(C)CC=C(c6ccc(C(=O)O)cc6)C(C)(C)[C@@H]5CC[C@]43C)[C@@H]12 [Example 156, 4-((1R,3aS,5aR,5bR,7aR,11aS,11bR,13aR,13bR)-3a-((3-(2-ethoxy-2-oxoethyl)ureido)methyl)-5a,5b,8,8,11a-pentamethyl-1-(prop-1-en-2-yl)-2,3,3a,4,5,5a,5b,6,7,7a,8,11,11a,11b,12,13,13a,13b-octadecahydro-1H-cyclopenta[a]chrysen-9-yl)benzoic acid] | < 100 | – |
| C=C(C)[C@@H]1CC[C@]2(CNCCC(=O)N3CCC4(CC3)OCCO4)CC[C@]3(C)[C@H](CC[C@@H]4[C@@]5(C)CC=C(c6ccc(C(=O)O)cc6)C(C)(C)[C@@H]5CC[C@]43C)[C@@H]12 [Example 126] | – | EC50 [2]: 1 nM |
| C=C(C)[C@@H]1CC[C@]2(CNCCc3ccccn3)CC[C@]3(C)[C@H](CC[C@@H]4[C@@]5(C)CC=C(c6ccc(C(=O)O)cc6)C(C)(C)[C@@H]5CC[C@]43C)[C@@H]12 [Example 5, 4-((1R,3aS,5aR,5bR,7aR,11aS,11bR,13aR,13bR)-5a,5b,8,8,11a-pentamethyl-1-(prop-1-en-2-yl)-3a-((2-(pyridin-2-yl)ethylamino)methyl)-2,3,3a,4,5,5a,5b,6,7,7a,8,11,11a,11b,12,13,13a,13b-octadecahydro-1H-cyclopenta[a]chrysen-9-yl)benzoic acid] | – | EC50 [2]: 20 nM |
| C=C(C)[C@@H]1CC[C@]2(CNCCC(=O)N3CCCC3)CC[C@]3(C)[C@H](CC[C@@H]4[C@@]5(C)CC=C(c6ccc(C(=O)O)cc6)C(C)(C)[C@@H]5CC[C@]43C)[C@@H]12 [Example 70, 4-((1R,3aS,5aR,5bR,7aR,11aS,11bR,13aR,13bR)-5a,5b,8,8,11a-pentamethyl-3a-((3-oxo-3-(pyrrolidin-1-yl)propylamino)methyl)-1-(prop-1-en-2-yl)-2,3,3a,4,5,5a,5b,6,7,7a,8,11,11a,11b,12,13,13a,13b-octadecahydro-1H-cyclopenta[a]chrysen-9-yl)benzoic acid] | < 100 | – |
| C=C(C)[C@@H]1CC[C@]2(CNCCCN(CCO)CCO)CC[C@]3(C)[C@H](CC[C@@H]4[C@@]5(C)CC=C(c6ccc(C(=O)O)cc6)C(C)(C)[C@@H]5CC[C@]43C)[C@@H]12 [Example 60, 4-((1R,3aS,5aR,5bR,7aR,11aS,11bR,13aR,13bR)-3a-((3-(bis(2-hydroxyethyl)amino)propylamino)methyl)-5a,5b,8,8,11a-pentamethyl-1-(prop-1-en-2-yl)-2,3,3a,4,5,5a,5b,6,7,7a,8,11,11a,11b,12,13,13a,13b-octadecahydro-1H-cyclopenta[a]chrysen-9-yl)benzoic acid] | < 100 | – |
| C=C(C)[C@@H]1CC[C@]2(CNCCCC(=O)N3CCS(=O)(=O)CC3)CC[C@]3(C)[C@H](CC[C@@H]4[C@@]5(C)CC=C(c6ccc(C(=O)O)cc6)C(C)(C)[C@@H]5CC[C@]43C)[C@@H]12 [Example 54, 4-((1R,3aS,5aR,5bR,7aR,11aS,11bR,13aR,13bR)-3a-(((4-(1,1-dioxido-4-thiomorpholinyl)-4-oxobutyl)amino)methyl)-1-isopropenyl-5a,5b,8,8,11a-pentamethyl-2,3,3a,4,5,5a,5b,6,7,7a,8,11,11a,11b,12,13,13a,13b-octadecahydro-1H-cyclopenta[a]chrysen-9-yl)benzoic acid] | < 100 | – |
| C=C(C)[C@@H]1CC[C@]2(CNCCn3ccnc3C)CC[C@]3(C)[C@H](CC[C@@H]4[C@@]5(C)CC=C(c6ccc(C(=O)O)cc6)C(C)(C)[C@@H]5CC[C@]43C)[C@@H]12 [Example 59, 4-((1R,3aS,5aR,5bR,7aR,11aS,11bR,13aR,13bR)-5a,5b,8,8,11a-pentamethyl-3a-((2-(2-methyl-1H-imidazol-1-yl)ethylamino)methyl)-1-(prop-1-en-2-yl)-2,3,3a,4,5,5a,5b,6,7,7a,8,11,11a,11b,12,13,13a,13b-octadecahydro-1H-cyclopenta[a]chrysen-9-yl)benzoic acid] | < 100 | – |
| C=C(C)[C@@H]1CC[C@]2(CNCCN(CC)CC)CC[C@]3(C)[C@H](CC[C@@H]4[C@@]5(C)CC=C(c6ccc(C(=O)O)cc6)C(C)(C)[C@@H]5CC[C@]43C)[C@@H]12 [Example 21, 4-((1R,3aS,5aR,5bR,7aR,11aS,11bR,13aR,13bR)-3a-((2-(diethylamino)ethylamino)methyl)-5a,5b,8,8,11a-pentamethyl-1-(prop-1-en-2-yl)-2,3,3a,4,5,5a,5b,6,7,7a,8,11,11a,11b,12,13,13a,13b-octadecahydro-1H-cyclopenta[a]chrysen-9-yl)benzoic acid] | < 100 | – |
| C=C(C)[C@@H]1CC[C@]2(CNCCC(=O)N3CCC[C@@H]3C(=O)O)CC[C@]3(C)[C@H](CC[C@@H]4[C@@]5(C)CC=C(c6ccc(C(=O)O)cc6)C(C)(C)[C@@H]5CC[C@]43C)[C@@H]12 [Example 100, (R)-1-(3-(((1R,3aS,5aR,5bR,7aR,11aS,11bR,13aR,13bR)-9-(4-carboxyphenyl)-5a,5b,8,8,11a-pentamethyl-1-(prop-1-en-2-yl)-2,3,3a,4,5,5a,5b,6,7,7a,8,11,11a,11b,12,13,13a,13b-octadecahydro-1H-cyclopenta[a]chrysen-3a-yl)methylamino)propanoyl)pyrrolidine-2-carboxylic acid] | < 100 | – |
| C=C(C)[C@@H]1CC[C@]2(CN(C)CCN3CCS(=O)(=O)CC3)CC[C@]3(C)[C@H](CC[C@@H]4[C@@]5(C)CC=C(c6ccc(C(=O)O)cc6)C(C)(C)[C@@H]5CC[C@]43C)[C@@H]12 [Example 33] | < 100 | – |

— patent publication US8748415B2 (priority 2011, dated 2014)
